# Source: patent publication US20120121540A1 (priority 2007, published 2012)
# Assay: HCV replicon assay (luciferase reporter, ET cell line)
# Type: cell-based
# Details: Hepatitis C virus, HCV replicon luciferase activity in ET cells
# Outline: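 ET cells carry a stable luciferase-ubiquitin-neo/NS3-5B subgenomic HCV replicon with adaptive mutations. Compounds (0.1 nM to […], 0.5% DMSO) were added 24 h after plating, and luciferase was read 48-72 h later. EC50 came from 10-point 2-fold dilutions fitted to a Hill equation; TC50 was measured in parallel by WST-1.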
row,Compound,inhibition at 10 µM [%]
1,"O=C(NCC1CCCCC1)c1nc2c(C(F)(F)F)cc(-c3ccco3)cn2c1Cl [Compound 170, 3-Chloro-6-furan-2-yl-8-trifluoromethyl-imidazo[1,2-a]pyridine-2-carboxylic acid cyclohexylmethyl-amide]",58
2,"CCN(CC)C(=O)/C=C/c1cc(-c2ccccc2)cn2c(Cl)c(C(=O)NCc3cccs3)nc12 [Compound 268, 3-Chloro-8-((E/Z)-2-diethylcarbamoyl-vinyl)-6-phenyl-imidazo[1,2-a]pyridine-2-carboxylic Acid (thiophen-2-ylmethyl)-amide]",40.2
3,"O=C(c1nc2c(C(F)(F)F)cc(-c3ccoc3)cn2c1Cl)N1CC=C(c2ccc(F)cc2)C1 [Compound 427, (3-Chloro-6-furan-3-yl-8-trifluoromethyl-imidazo[1,2-a]pyridin-2-yl)-[3-(4-fluoro-phenyl)-2,5-dihydro-pyrrol-1-yl]-methanone]",99.1
4,"O=C(c1nc2c(C(F)(F)F)cc(-c3cn[nH]c3)cn2c1Br)N1CC=C(c2ccsc2)C1 [Compound 435, [3-Bromo-6-(1H-pyrazol-4-yl)-8-trifluoromethyl-imidazo[1,2-a]pyridin-2-yl]-(3-thiophen-3-yl-2,5-dihydro-pyrrol-1-yl)-methanone]",98.8
5,O=C(c1nc2c(C(F)(F)F)cc(-c3ccoc3)cn2c1Cl)N1CC=C(c2cscn2)CC1 [Compound 566],99.4
6,"O=C(c1cn2cc(-c3cn[nH]c3)cc(C(F)(F)F)c2n1)N1CC=C(c2nccs2)CC1 [Compound 612, [6-(1H-pyrazol-4-yl)-8-(trifluoromethyl)imidazo[1,2-a]pyridin-2-yl][4-(1,3-thiazol-2-yl)-3,6-dihydropyridin-1(2H)-yl]methanone]",59.3
7,"O=C(Cc1c(C(=O)N2CCC(c3ccc(F)cc3)C2)nc2c(C(F)(F)F)cc(-c3ccoc3)cn12)NC1CC1 (centres unmarked) [Compound 242, N-Cyclopropyl-2-{2-[3-(4-fluoro-phenyl)-pyrrolidine-1-carbonyl]-6-furan-3-yl-8-trifluoromethyl-imidazo[1,2-a]pyridin-3-yl}-acetamide]",93
8,"O=C(c1nc2c(C(F)(F)F)cc(-c3ccoc3)cn2c1Cl)N1CCN(c2ncccn2)CC1 [Compound 597, (3-Chloro-6-furan-3-yl-8-trifluoromethyl-imidazo[1,2-a]pyridin-2-yl)-(4-pyrimidin-2-yl-piperazin-1-yl)-methanone]",38.7
9,"O=C(c1nc2c(C(F)(F)F)cc(-c3cn[nH]c3)cn2c1-c1cn[nH]c1)N1CCC(c2cccc(F)c2)C1 (centres unmarked) [Compound 486, [3,6-Bis-(1H-pyrazol-4-yl)-8-trifluoromethyl-imidazo[1,2-a]pyridin-2-yl]-[3-(3-fluoro-phenyl)-pyrrolidin-1-yl]-methanone]",65.8
10,"O=C(c1nc2c(C(F)(F)F)cc(-c3ccoc3)cn2c1Cl)N1CC=C(C2=CN=CNC2)CC1 [Compound 619, [3-chloro-6-(furan-3-yl)-8-(trifluoromethyl)imidazo[1,2-a]pyridin-2-yl][4-(1,6-dihydropyrimidin-5-yl)-3,6-dihydropyridin-1(2H)-yl]methanone]",44
11,"N#CC1(c2ccccc2)CCN(C(=O)c2nc3c(C(F)(F)F)cc(-c4ccoc4)cn3c2Cl)CC1 [Compound 601, 1-(3-Chloro-6-furan-3-yl-8-trifluoromethyl-imidazo[1,2-a]pyridine-2-carbonyl)-4-phenyl-piperidine-4-carbonitrile]",98.3
12,"CS(=O)(=O)NC1CN(C(=O)c2nc3c(C(F)(F)F)cc(-c4ccoc4)cn3c2Cl)C1 [Compound 491, N-[1-(3-Chloro-6-furan-3-yl-8-trifluoromethyl-imidazo[1,2-a]pyridine-2-carbonyl)-azetidin-3-yl]-methanesulfonamide]",92.4
13,"NC(=O)Cc1c(C(=O)N2CCC(c3ccc(F)cc3)C2)nc2c(C(F)(F)F)cc(-c3ccoc3)cn12 (centres unmarked) [Compound 239, 2-{2-[3-(4-Fluoro-phenyl)-pyrrolidine-1-carbonyl]-6-furan-3-yl-8-trifluoromethyl-imidazo[1,2-a]pyridin-3-yl}-acetamide]",53
14,"O=C(c1nc2c(C(F)(F)F)cc(-c3ccoc3)cn2c1Cl)N1CCC(C2CCOC2)C1 (centres unmarked) [Compound 431, (3-Chloro-6-furan-3-yl-8-trifluoromethyl-imidazo[1,2-a]pyridin-2-yl)-[3-(tetrahydro-furan-3-yl)-pyrrolidin-1-yl]-methanone]",95.1
15,"O=C(NCc1ccc(N2CCOCC2)cc1)c1nc2c(C(F)(F)F)cc(-c3ccco3)cn2c1Cl [Compound 212, 3-Chloro-6-furan-2-yl-8-trifluoromethyl-imidazo[1,2-a]pyridine-2-carboxylic Acid 4-morpholin-4-yl-benzylamide]",56.7
16,"O=C(NCc1ccsc1)c1nc2c(C(F)(F)F)cc(-c3ccco3)cn2c1Cl [Compound 173, 3-Chloro-6-furan-2-yl-8-trifluoromethyl-imidazo[1,2-a]pyridine-2-carboxylic acid (thiophen-3-ylmethyl)-amide]",95.2

row,Compound,inhibition at 10 µM [%]
1,"O=C(c1nc2c(C(F)(F)F)cc(-c3ccoc3)cn2c1Cl)N1CC(NS(=O)(=O)c2ccc(F)cc2)C1 [Compound 496, N-[1-(3-Chloro-6-furan-3-yl-8-trifluoromethyl-imidazo[1,2-a]pyridine-2-carbonyl)-azetidin-3-yl]-4-fluoro-benzenesulfonamide]",94.3
2,"O=C(NCc1cccs1)c1nc2c(C(F)(F)F)cc(-c3ccn[nH]3)cn2c1Cl [Compound 283, 3-Chloro-6-(2H-pyrazol-3-yl)-8-trifluoromethyl-imidazo[1,2-a]pyridine-2-carboxylic Acid(thiophen-2-ylmethyl)-amide]",87.5
3,"O=C(NCc1cccs1)c1cc2cc(-c3ccoc3)cc(Cl)c2[nH]1 [Compound 348, 7-Chloro-5-furan-3-yl-1H-indole-2-carboxylic Acid (thiophen-2-ylmethyl)-amide]",0.1
4,"O=C(Nc1ccccc1)Nc1nc2c(C(F)(F)F)cc(-c3ccco3)cn2c1Cl [Compound 211, 1-(3-Chloro-6-furan-2-yl-8-trifluoromethyl-imidazo[1,2-a]pyridin-2-yl)-3-phenyl-urea]",51.8
5,"O=C(NCc1cccs1)c1nc2c(C(F)(F)F)cc(-c3cccc(F)c3)cn2c1CN1CCOCC1 [Compound 364, 6-(3-Fluoro-phenyl)-3-morpholin-4-ylmethyl-8-trifluoromethyl-imidazo[1,2-a]pyridine-2-carboxylic Acid (thiophen-2-ylmethyl)-amide]",5.3
6,"N#Cc1cccc(F)c1C1=CCN(C(=O)c2nc3c(C(F)(F)F)cc(-c4ccoc4)cn3c2Cl)CC1 [Compound 565, 2-[1-(3-Chloro-6-furan-3-yl-8-trifluoromethyl-imidazo[1,2-a]pyridine-2-carbonyl)-1,2,3,6-tetrahydro-pyridin-4-yl]-3-fluoro-benzonitrile]",98
7,"O=C(NCc1cccs1)c1cc2cc(-c3ccccc3)cc(Br)n2n1 [Compound 111, 7-Bromo-5-phenyl-pyrazolo[1,5-a]pyridine-2-carboxylic Acid (thiophen-2-ylmethyl)-amide]",64.2
8,"C[C@@H](NC(=O)c1nc2c(C(F)(F)F)cc(-c3ccoc3)cn2c1Cl)c1ccccc1 [Compound 411, 3-Chloro-6-furan-3-yl-8-trifluoromethyl-imidazo[1,2-a]pyridine-2-carboxylic Acid (1-phenyl-ethyl)-amide]",74.8
9,"COc1cccc(C2CCN(C(=O)c3nc4c(C(F)(F)F)cc(-c5ccoc5)cn4c3Cl)C2)c1 (centres unmarked) [Compound 451, (3-Chloro-6-furan-3-yl-8-trifluoromethyl-imidaz [1,2-a]pyridin-2-yl)-[3-(3-methoxy-phenyl)-pyrrolidin-1-yl]-methanone]",73.5
10,"O=C(c1nc2c(C(F)(F)F)cc(-c3ccoc3)cn2c1Cl)N1CCC(c2ccccc2F)C1 (centres unmarked) [Compound 333, (3-Chloro-6-furan-3-yl-8-trifluoromethyl-imidazo[1,2-a]pyridin-2-yl)-[3-(2-fluoro-phenyl)-pyrrolidin-1-yl]-methanone]",98.9
11,"O=C(NCc1cccs1)c1nc2c(C(F)(F)F)cc(-c3ccc(F)c(F)c3)cn2c1Cl [Compound 198, 3-Chloro-6-(3,4-difluoro-phenyl)-8-trifluoromethyl-imidazo[1,2-a]pyridine-2-carboxylic acid (thiophen-2-ylmethyl)-amide]",83.2
12,"O=C(c1nc2c(C(F)(F)F)cc(-c3ccoc3)cn2c1Cl)N1CC=C(c2ccccc2F)C1 [Compound 424, (3-Chloro-6-furan-3-yl-8-trifluoromethyl-imidazo[1,2-a]pyridin-2-yl)-[3-(2-fluoro-phenyl)-2,5-dihydro-pyrrol-1-yl]-methanone]",99.7
13,"O=C(NCCc1ccccc1)c1nc2c(C(F)(F)F)cc(-c3ccco3)cn2c1Cl [Compound 321, 3-Chloro-6-furan-2-yl-8-trifluoromethyl-imidazo[1,2-a]pyridine-2-carboxylic Acid phenethyl-amide]",78.2
14,"O=C(c1nc2c(C(F)(F)F)cc(-c3ccoc3)cn2c1Cl)N1CCN(c2nccs2)CC1 [Compound 536, (3-Chloro-6-furan-3-yl-8-trifluoromethyl-imidazo[1,2-a]pyridine-2-yl)-(4-thiazol-2-yl-piperazin-1-yl)-methanone]",95.8
15,"O=C(c1nc2c(C(F)(F)F)cc(-c3cn[nH]c3)cn2c1Br)N1CCC(c2ccc(F)cc2)C1 (centres unmarked) [Compound 256, [3-Bromo-6-(1H-pyrazol-4-yl)-8-trifluoromethyl-imidazo[1,2-a]pyridin-2-yl]-[3-(4-fluoro-phenyl)-pyrrolidin-1-yl]-methanone]",92
16,"CN(C)CCN(Cc1cccs1)C(=O)c1nc2c(C(F)(F)F)cc(-c3ccco3)cn2c1Cl [Compound 319, 3-Chloro-6-furan-2-yl-8-trifluoromethyl-imidazo[1,2-a]pyridine-2-carboxylic Acid (2-dimethylamino-ethyl)-thiophen-2-ylmethyl-amide]",58.8
